Test results as given in the supplement of paper PMC10307832.

What follows are cell lines tested with CN1CCN(CC1)C2=CC(=C(C=C2)NC3=NC=C4C(=N3)N(C5=CC=CC=C5C(=O)N4C)C)OC [XMD8-85] + Cc1nc(Nc2ncc(C(=O)Nc3c(C)cccc3Cl)s2)cc(N2CCN(CCO)CC2)n1 [Dasatinib] (partner 0.075 µM) (assay: relative viability (nuclei count vs DMSO), 5 days (fraction); higher = more cells survive). Conditions: first compound 0.08 µM.
Procedure, shortened: (§1)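 Nuclei were stained with Hoechst during a one-step fixation (final 0.05% Triton X-100, 1% formaldehyde, 1 ug/ml Hoechst) carried out 5 days after dosing, then counted on 4× images. The cells, lung cancer lines in 1536-well plates, had been dosed by pin tool the day after seeding with one drug alone or a fixed anchor-drug dose plus five library-drug doses (not always all listed) in √10 steps. Relative viability is the nuclei count in treated wells divided by that in vehicle wells, and each value is the median of duplicate plates.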

Cell Line	relative viability
NCI-H1355	0.671
NCI-H1395	0.438
NCI-H1437	0.372
NCI-H1650	0.34
NCI-H1651	0.46
NCI-H1666	0.822
NCI-H1734	0.463
NCI-H1755	0.409
NCI-H1793	0.384
NCI-H1915	0.328
NCI-H1944	0.203
NCI-H1975	0.317
NCI-H1993	0.522
NCI-H2009	0.285
NCI-H2023	0.426
NCI-H2085	0.275
NCI-H2087	0.953
NCI-H2126	0.601
NCI-H2170	0.574
NCI-H2228	0.451
NCI-H2342	0.296
NCI-H2347	0.304
NCI-H2405	0.206
NCI-H3122	0.933
PC-3 [JPC-3]	0.889
PC-14	0.229

Same assay, conditions: first compound 0.253 µM

Cell Line	relative viability
NCI-H522	0.867
NCI-H596	0.541
NCI-H647	0.141
NCI-H650	0.51
NCI-H661	0.888
NCI-H727	0.416
NCI-H838	0.277
NCI-H1355	0.753
NCI-H1395	0.414
NCI-H1437	0.364
NCI-H1650	0.313
NCI-H1651	0.334
NCI-H1666	0.827
NCI-H1734	0.491
NCI-H1755	0.432
NCI-H1793	0.403

Cell Line	relative viability
NCI-H1915	0.339
NCI-H1944	0.228
NCI-H1975	0.345
NCI-H1993	0.518
NCI-H2009	0.29
NCI-H2023	0.521
NCI-H2085	0.265
NCI-H2087	0.802
NCI-H2126	0.625
NCI-H2170	0.562
NCI-H2228	0.514
NCI-H2342	0.316
NCI-H2347	0.332
NCI-H2405	0.206
PC-3 [JPC-3]	0.932
PC-14	0.271

Same assay, conditions: first compound 0.8 µM

Cell Line	relative viability
NCI-H522	0.818
NCI-H596	0.553
NCI-H647	0.16
NCI-H650	0.437
NCI-H661	0.856
NCI-H727	0.442
NCI-H838	0.281
NCI-H1355	0.653
NCI-H1395	0.42
NCI-H1437	0.398
NCI-H1650	0.365
NCI-H1651	0.511
NCI-H1666	0.808
NCI-H1734	0.453
NCI-H1755	0.434
NCI-H1793	0.404
NCI-H1915	0.348

Cell Line	relative viability
NCI-H1944	0.204
NCI-H1975	0.384
NCI-H1993	0.648
NCI-H2009	0.288
NCI-H2023	0.586
NCI-H2085	0.235
NCI-H2087	0.959
NCI-H2126	0.613
NCI-H2170	0.526
NCI-H2228	0.516
NCI-H2342	0.32
NCI-H2347	0.289
NCI-H2405	0.221
NCI-H3122	0.984
PC-3 [JPC-3]	0.939
PC-14	0.275

Same assay, conditions: first compound 2.53 µM

Cell Line	relative viability
NCI-H522	0.944
NCI-H596	0.556
NCI-H647	0.196
NCI-H650	0.418
NCI-H661	0.834
NCI-H727	0.344
NCI-H838	0.28
NCI-H1355	0.819
NCI-H1395	0.428
NCI-H1437	0.394
NCI-H1650	0.271
NCI-H1651	0.387
NCI-H1666	0.773
NCI-H1734	0.574
NCI-H1755	0.482
NCI-H1793	0.413
NCI-H1915	0.326

Cell Line	relative viability
NCI-H1944	0.223
NCI-H1975	0.38
NCI-H1993	0.744
NCI-H2009	0.209
NCI-H2023	0.619
NCI-H2085	0.203
NCI-H2087	0.79
NCI-H2126	0.562
NCI-H2170	0.564
NCI-H2228	0.398
NCI-H2342	0.32
NCI-H2347	0.313
NCI-H2405	0.198
NCI-H3122	0.861
PC-3 [JPC-3]	1.14
PC-14	0.249

Same assay, conditions: first compound 8 µM

Cell Line	relative viability
NCI-H522	0.909
NCI-H596	0.545
NCI-H647	0.122
NCI-H650	0.304
NCI-H661	0.455
NCI-H727	0.353
NCI-H838	0.191
NCI-H1395	0.309
NCI-H1437	0.282
NCI-H1650	0.192
NCI-H1651	0.307
NCI-H1666	0.701
NCI-H1734	0.499
NCI-H1755	0.353
NCI-H1793	0.338
NCI-H1915	0.32

Cell Line	relative viability
NCI-H1944	0.203
NCI-H1975	0.236
NCI-H1993	0.744
NCI-H2009	0.167
NCI-H2023	0.314
NCI-H2085	0.197
NCI-H2087	0.472
NCI-H2126	0.417
NCI-H2170	0.548
NCI-H2228	0.231
NCI-H2342	0.331
NCI-H2347	0.489
NCI-H2405	0.177
NCI-H3122	0.794
PC-3 [JPC-3]	0.997
PC-14	0.115

What follows are cell lines tested with CN1CCN(CC1)C2=CC(=C(C=C2)NC3=NC=C4C(=N3)N(C5=CC=CC=C5C(=O)N4C)C)OC [XMD8-85] + CCNC(=O)c1noc(-c2cc(C(C)C)c(O)cc2O)c1-c1ccc(CN2CCOCC2)cc1 [Luminespib] (partner 0.01 µM) in the same assay as above. Conditions: first compound 0.08 µM.
Procedure, shortened: as §1

Cell Line	relative viability
NCI-H522	1.15
NCI-H596	0.885
NCI-H647	0.151
